Experimental data reported in ChEMBL document CHEMBL4421729 (2013).

Target: T1, Taste receptor type 2 member 46 (Homo sapiens) (UniProt P59540)
T1 sequence (whole entry): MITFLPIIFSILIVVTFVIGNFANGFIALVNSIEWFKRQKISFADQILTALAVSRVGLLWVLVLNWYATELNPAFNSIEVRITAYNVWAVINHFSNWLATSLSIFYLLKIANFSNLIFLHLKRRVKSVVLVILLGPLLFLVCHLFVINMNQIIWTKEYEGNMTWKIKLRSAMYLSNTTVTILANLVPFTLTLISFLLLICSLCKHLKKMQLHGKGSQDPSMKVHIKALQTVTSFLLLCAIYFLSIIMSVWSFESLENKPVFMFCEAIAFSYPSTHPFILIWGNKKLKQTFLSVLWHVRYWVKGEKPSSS
Experiment: Agonist activity human TAS2R46 transiently expressed in HEK293T/Galpha16-gustducin 44 cells assessed as effect on calcium flux by measuring deltaF/F0 ratio by Fluo-4-AM dye based FLIPR assay
Assay type: functional, cell-based

In the case of COc1ccc2c(c1)[C@]13CCCC[C@@H]1[C@H](C2)N(C)CC3, the Activity is reported as “Dose-dependent effect”.
